Patent US7728146B2, “Enzyme inhibitors” (Probiodrug AG, priority 2006, dated 2010)

Assays:
[1] = system: neuroblastoma cell line SY5Y; test: LD50 determination on SY5Y (LDH); type: cell-based; conditions: 8 serial dilutions, highest concentration 1 mM
Protocol: After 24 h of cultivation in a 96 well plate (50 000 cells/well) compounds (dissolved in DMSO) are added and cytotoxicity and vitality of the cells are analysed after another 24 h of cultivation using the CytoTox-One Homogenoeous membrane toxicity assay (Promega).
For cytotoxicity the LDH activity in the cell culture media after 24 h of incubation are analysed. The untreated control is set to 0% cytotoxicity. For the 100% value LDH activity of lysed untreated cells are analysed.
For viability cell culture media are removed from the cells and all cells are lysed using the lysis buffer. LDH activity is determined and untreated control is set to 100% viability.
For determination of LD50 the liver carcinoma cell line HEP-G2 and the neuroblastoma cell line SY5Y may be used. The effect of 8 serial dilutions of the compounds (highest concentration 1 mM) is investigated as described above.

DP IV = DP IV (Homo sapiens, UniProt P27487); test: Ki and inhibition type, DP IV; type: biochemical; conditions: compounds obtained by preparative synthesis
Outline: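 Ki by non-linear regression of 7 inhibitor dilutions (range from IC50) against 4 substrate dilutions, in triplicate, using purified human recombinant enzyme under IC50 assay conditions. Inhibition type assigned from the best-fitting equation (competitive, partial competitive, non-competitive); […].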

[2] = Blood-brain distribution / LogBB; type: in vivo; conditions: male Wistar rats, bolus plus 60 min continuous i.v. infusion; for Kp at 60 min / Kp at 1 h: Wistar (Crl:WI), rat, brain and plasma, iv; for Kp at 1 h: read-out: Brain/Plasma ratio; for LogBB Mean: mean of the animals
Protocol: Male Wistar rats (N=20, 5 per Group; Crl:WI) with a body weight ranging between 300 and 350 g were purchased from Charles River Laboratories (Sulzfeld, Germany).
One week after adaptation to the housing conditions, catheters were implanted into the carotid artery and jugular vein of the rats under general anaesthesia (i.p. injection of 0.25 ml/kg b.w. Rompun® [2%], BayerVital, Germany and 0.5 ml/kg b.w. Ketamin 10, Atarost GmbH & Co., Twistringen, Germany). The animals were allowed to recover for one week. The catheters were flushed with heparin-saline (100 IU/ml) three times per week. In case of dysfunction of the catheter, a new animal were recruited to implant catheters into the carotid artery and jugular vein of this new rat under general anaesthesia. No anaesthetics were administered during infusion for compound transfer.
The bolus dose of compounds were dissolved in 10 μl DMSO and than diluted to 1 ml with saline (0.154 mol/l) and were injected via the venous catheter (n=5 rats). Thereafter, a continuous i.v. infusion of the compound solved in 10 μl DMSO and diluted to 5 ml with saline (infusion rate 0.083 ml/min; Perfusor^R fm, B. Braun, Melsungen AG, Germany) were commenced for 60 min. 150 μl arterial blood samples were taken at 0, 20, 40, 50 and 60 min and stored on ice until centrifugation (12000 rpm for 2 min). Separated plasma were frozen in liquid nitrogen for further analysis.
After 60 min primed-continuous infusion the N=5 rats were heparinized with 50 IU per 100 g b.w. heparin 5 min before the end of protease inhibitor infusion. The rats were quickly anaesthetized with i.a. ketamin® injection and bled to death from the abdominal vessels. The aorta supplying the upper part of the body were separated and canulated. The upper part of the body (including the brain) were perfused with 20 ml ice cold saline to flush the vessels free within the brain. The brains were taken out of the skull, rinsed briefly in ice cold saline and placed on filter paper.
Preparation: The brains were divided into their hemispheres, which were weighed and frozen in liquid nitrogen for further analysis.
In plasma samples and brain tissues concentrations of compounds were measured using the aforementioned LC-MS methods.

Sequence of DP IV (P27487 whole entry): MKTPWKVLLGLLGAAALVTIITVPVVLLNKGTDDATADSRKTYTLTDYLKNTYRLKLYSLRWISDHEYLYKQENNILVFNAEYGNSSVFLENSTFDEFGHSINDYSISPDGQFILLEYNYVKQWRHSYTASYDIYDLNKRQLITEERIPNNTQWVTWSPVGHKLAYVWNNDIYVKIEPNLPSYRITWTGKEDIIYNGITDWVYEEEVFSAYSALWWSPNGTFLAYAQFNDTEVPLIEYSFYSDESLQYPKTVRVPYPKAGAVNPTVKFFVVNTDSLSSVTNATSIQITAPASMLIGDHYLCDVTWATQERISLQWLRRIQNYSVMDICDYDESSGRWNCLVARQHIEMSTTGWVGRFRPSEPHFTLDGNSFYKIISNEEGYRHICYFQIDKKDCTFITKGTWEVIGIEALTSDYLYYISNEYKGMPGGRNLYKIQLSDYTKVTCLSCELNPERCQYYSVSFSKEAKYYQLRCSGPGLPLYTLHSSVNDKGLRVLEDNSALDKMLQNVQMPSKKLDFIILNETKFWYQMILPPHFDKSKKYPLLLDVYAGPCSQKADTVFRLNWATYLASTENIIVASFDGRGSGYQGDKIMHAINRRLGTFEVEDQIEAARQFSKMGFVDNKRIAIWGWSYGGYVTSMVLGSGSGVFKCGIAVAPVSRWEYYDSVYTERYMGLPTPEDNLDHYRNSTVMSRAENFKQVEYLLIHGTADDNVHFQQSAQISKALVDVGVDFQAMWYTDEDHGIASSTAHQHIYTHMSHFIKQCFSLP

| SMILES | LD50 Viability SY5Y [1] [mM] | LD50 cytotox SY5Y [1] [mM] | Ki (DP IV) [nM] | LogBB ([2]; Animal No. 1) | LogBB ([2]; Animal No. 2) | LogBB ([2]; Animal No. 3) | LogBB ([2]; Animal No. 4) | Kp at 60 min [2] | Kp at 1 h [2] | LogBB Mean [2] | LogBB ([2]; Animal No. 5) |
| --- | --- | --- | --- | --- | --- | --- | --- | --- | --- | --- | --- |
| NCc1c(-c2ccc(Cl)cc2Cl)ncn1Cc1cccnc1 [Example 121b, (4-(2,4-dichlorophenyl)-1-((pyridin-3-yl)methyl)-1H-imidazol-5-yl)methanamine] | 0.46 | 0.68 | 2.96 | −0.57 | −0.50 | −0.70 | −0.91 | 0.214 | 0.214 | −0.6700 |  |
| NCc1c(-c2ccc(Cl)cc2Cl)ncn1Cc1ccsc1 [Example 130b, (4-(2,4-dichlorophenyl)-1-((thiophen-3-yl)methyl)-1H-imidazol-5-yl)methanamine] | 0.17 | 0.28 | 7.69 | −0.65 | −0.63 | −1.03 | −0.12 | 0.23 | 0.23 | −0.6380 | −0.76 |
| NCc1c(-c2ccc(Cl)cc2Cl)ncn1Cc1ccccn1 [Example 39b] | 0.29 | 0.60 | 5.68 | −0.56 | −0.43 | −0.53 | −0.38 | 0.275 | 0.275 | −0.4580 | −0.39 |
| NCc1c(-c2ccc(Cl)cc2Cl)ncn1Cc1ccccc1 [Example 24b, (1-benzyl-4-(2,4-dichlorophenyl)-1H-imidazol-5-yl)methanamine] | 0.11 | 0.19 | 4.74 | −0.36 | −0.33 | −0.26 | −0.34 | 0.483 | 0.483 | −0.3160 | −0.29 |
